# Measurements published in publication PMC12767106, “In Situ Assembly of Transformable Monopeptide on Activated Neutrophils Attenuates NETs‐Induced Hepatocellular Carcinoma Metastasis by Disrupting NE Nuclear Translocation” (Advanced Science, 2025).
# What was measured:
# Type in all cases: cell-based, mouse
# C166 endothelial cells = assay: Matrigel tube formation assay; conditions: 6 h, versus Control and NFTP-NPs groups
# Method: Matrigel tube formation assay
# Murine C166 endothelial cells (3×10^4cells/well) were placed on 96-well plates coated with Matrigel (356231, Corning, New York, USA) and incubated with various treatments. After incubation for six h, capillary-like structures were observed and counted under a microscope (Axiovert 200, Zeiss, Germany). All the experiments […]
# In vitro permeability assays and trans-endothelial invasion assays
# For in vitro permeability assays, C166 cells were treated with Resting neutrophils, Control, NFTP-NPs, FTP-NPs, and NEi groups for 48 h to form an endothelial monolayer, and then Evans Blue (PHYGENE, China) was added to the upper layer of the transwell filters (0.4 μm, Corning). […]
# All the experiments were performed thrice. […]
# resting neutrophils = assay: CCK-8 cytotoxicity; conditions: CCK-8, 24 h, different dosages
# Method: The supernatant was discarded, and the red blood cells were lysed with RBC lysate. The neutrophils were then washed with PBS again, and the supernatant was discarded. The cells were resuspended in culture medium and used for further experiments. […]
# 10 minutes to remove unbound particles, and the supernatant was collected. […]
# In vitro cytotoxicity assay
# The CCK-8 assay was used to assess the cell viability of Hepa1-6/luc, resting neutrophils, and activated neutrophils. Following the seeding of 1*10^4 cells per well on a 96-well plate, the cells were subjected to different dosages of FTP-NPs and NFTP-NPs (medium: DMSO = 99:1 v/v). After 24 hours, the cells were incubated for two hours with 10 µL of CCK-8 solution. Finally, a microplate reader (Tecan Infinite M200, Switzerland) was used to measure cell viability based on the absorbance values.
# Targeting the capability of NEBP
# To evaluate the targeting capability of NE-binding peptide (NEBP), the harvested resting neutrophils and […]
# activated neutrophils = assay: NETs formation (MPO-DNA ELISA, CitH3 immunofluorescence and Western blot); conditions: PMA-activated neutrophils, 50 µM, 4 h, CitH3 staining and Western blot
# Method: Submitted to Advanced Science
# Neutrophil Elastase Activity Assay
# To evaluate the distribution of active NE on the surface and inside of neutrophils, we used a kit (AkrivisBio’s Neutrophil Elastase Activity Assay, MA-0156), seeded neutrophils in confocal microscopy dishes, and then treated them with NFTP-NPs (50 µM, medium: DMSO = 99:1, v/v), FTP-NPs (50 µM, medium: DMSO = 99:1, v/v), PMA+NFTP-NPs (50 µM, medium: DMSO = 99:1, v/v), and PMA+FTP-NPs (50 µM, medium: DMSO = 99:1, v/v) at 37°C. Because the Neutrophil elastase in the kit cleaves a concrete fluorogenic substrate which releases AFC, providing intense fluorescence, 50 μl of MeOSucc-AAPV-AFC mix (Assay Buffer: MeOSucc-AAPV-AFC = 48:2) was added at 4 h, and after incubation for 1 h, the samples were examined by CLSM (LSM980, Zeiss, Germany).
# Quantitative analysis of NE activity […]
# DMSO = 99:1, v/v) for 4 h to obtain the solution.35,36 Quantitative analysis was carried out by a NETosis Assay Kit (Cayman Chemical, USA).
# Quantitative induction analysis of NETs in vitro […]
# According to the manufacturer's instructions, MPO -DNA levels in cultured supernatant were analyzed by an ELISA kit (MEIMIAN, China).38 Briefly, samples were added to each well and incubated with anti -MPO and anti-DNA antibodies for 2 h at room temperature. […] The OD value w as then measured by a microplate […]
substance,measurement,setting,value
PpIX-GFFVLK-EAIPMSIPPEVK [FTP-NPs],number of tubular structures formed,C166 endothelial cells,significantly lower
same,survival rate,resting neutrophils,over 95%
same,formation of NETs,activated neutrophils,effectively inhibit the formation of NETs
